From patent publication US8207131B2, “Peptide” (Megmilk Snow Brand Co., Ltd., priority 2006, dated 2012)
No end group written: not given here.

Key:
[1] = antioxidative activity by linoleic acid-β-carotene degradation method; assay type: biochemical
Method: The antioxidative activity of the peptide fractionated in Example 1 was measured utilizing the β-carotene degradation effect of an oxide of linoleic acid. Specifically, a 300 ml Erlenmeyer flask was charged with 0.5 ml of a β-carotene solution (1 mg/ml chloroform), 0.2 ml of a linoleic acid solution (100 mg/ml chloroform), and 1.0 ml of a Tween 40 solution (200 mg/ml chloroform). After completely removing chloroform using nitrogen gas, 100 ml of distilled water was added to dissolve the components. 9.0 ml of a 0.2 M phosphate buffer (pH: 7.0) was then added to the solution to prepare a linoleic acid-β-carotene solution. 0.18 ml of the linoleic acid-β-carotene solution was added to a […] microwell plate to which 0.02 ml of the peptide fraction was provided. The absorbance S0 at 490 nm was measured immediately after the addition. When preparing the linoleic acid-β-carotene solution, the amount of the β-carotene solution was appropriately adjusted so that the absorbance S0 was about 1.2 (1.1 to 1.3). The microwell plate was placed in a thermostat bath at 50° C. immediately after measuring the absorbance S0, and the peptide fraction was incubated for 30 minutes. The absorbance S30 was measured immediately after incubation. A decrease (ΔS=S0−S30) in absorbance at 490 nm over 30 minutes was then calculated. 70% ethanol was used as a blank instead of the sample and subjected to the above operation. Specifically, the absorbance B0 immediately after adding the linoleic acid-β-carotene solution and the absorbance B30 after being kept at 50° C. for 30 minutes were measured, and a decrease (ΔB=B0−B30) in absorbance at 490 nm over 30 minutes was calculated. The antioxidative activity (antioxidation rate (%)) was determined by substituting the resulting values in the following expression. Antioxidation rate (%)=[ΔB−ΔS]/(ΔB)×100
As a positive control, carnosine (β-Ala-L-His; manufactured by Peptide Institute, Inc.) (muscle-derived antioxidative peptide) prepared to a concentration of 0.01 μg/ml, 0.1 μg/ml, or 1 μg/ml was used.
The antioxidative activity of the peptide obtained in Example 2 was measured in the same manner as in Test Example 1. As a positive control, carnosine (β-Ala-L-His; manufactured by Peptide Institute, Inc.) (muscle-derived antioxidative peptide) and catechin (manufactured by Wako Pure Chemical Industries, Ltd.) (1 μm, 10 μm, or 100 μm) were used. Table 2 and FIG. 3 show the evaluation results for the antioxidative activity of the synthetic peptide.
The antioxidative activities of the two peptides (i.e., tryptic digests) obtained in Examples 3 and the tryptic digest before fractionation were measured using a carotene degradation method in the same manner as in Test Example 2. The peptide concentration was determined by dissolving each peptide in 500 μl of pure water and measuring the peptide concentration using a Micro BCA Protein assay kit (manufactured by Pierce). As a positive control, carnosine (β-Ala-L-His; manufactured by Peptide Institute, Inc.) and catechin (manufactured by Wako Pure Chemical Industries, Ltd.) were used in the same manner as in Test Example 2. A diluted solution (1 ng/ml, 10 ng/ml, and 100 ng/ml) was prepared for each fragment, and the antioxidative activity was evaluated using the β-carotene degradation method.

[2] = test system: rat primary-cultured visceral fat cells (VAC01); test: peptide adipocyte administration experiment; assay type: cell-based
Method: Experiments were conducted in which the peptide isolated from the cheese in Example 1 was administered to primary-cultured visceral fat cells.
The experiments were conducted using rat primary-cultured visceral fat cells (VAC01, manufactured by Cell Garage Co., Ltd.) and a visceral fat cytodifferentiation medium (manufactured by Cell Garage Co., Ltd.). Cells preserved in a frozen state in accordance with the protocol provided by Cell Garage Co., Ltd. were melted and disseminated in a 24-well plate (zeroth day). A culture medium (peptide concentration: 100 μM, 50 μM, 10 μM, or 0 μM) in which the synthetic peptide was dissolved was added to the 24-well plate on the second day, fifth day, and seventh day, and the synthetic peptide was cultured. The culture supernatant liquid was collected on the fifth day, seventh day, and eighth day to measure the adiponectin level. The cells were collected on the eighth day. The enzyme activity of glycerol-3-phosphate dehydrogenase (GPDH) in the cells, the DNA content of each well, and the intracellular fat accumulation level were measured. GPDH is an enzyme that functions when triglyceride is synthesized from glucose to produce mature fat cells. In this example, preadipocytes were differentiated, and the effect of administration of the peptide according to the present invention was observed.
The DNA content was determined using a DNA quantization kit (manufactured by Cell Garage Co., Ltd.).
The glycerol-3-phosphate dehydrogenase (GPDH) enzyme activity in the cells was measured using a GPDH activity measurement kit (manufactured by Cell Garage Co., Ltd.) in accordance with the protocol provided by Cell Garage Co., Ltd. The measurement results were standardized by the content of DNA extracted from each well.
The adiponectin level in the culture supernatant liquid was measured using an adiponectin ELISA kit (manufactured by Otsuka Pharmaceutical Co., Ltd.). The measurement results were standardized by the content of DNA extracted from each well.
The intracellular fat accumulation was determined by fat staining with oil red O and absorbance measurement using a fat staining kit (manufactured by Cell Garage Co., Ltd.).

[3] = sample concentration 0.01 μg/ml, Test Example 1
[4] = sample concentration 0.1 μg/ml, Test Example 1
[5] = sample concentration 1 μg/ml, Test Example 1
[6] = sample concentration 1 μg/ml, Test Example 2
[7] = sample concentration 10 μg/ml, Test Example 2
[8] = sample concentration 100 μg/ml, Test Example 2
[9] = Test Example 3, tryptic digest peptides, 1, 10, 100 ng/ml, FIG. 5

In the case of `NCCC(=O)N[C@@H](Cc1cnc[nH]1)C(=O)O` [Carnosine, β-Ala-L-His, reference compound], the “Antioxidative activity (%)” value [1, 3] is reported as 32.9%, the “Antioxidative activity (%)” value [1, 4] is reported as 57.8% and the “Antioxidative activity (%)” value [1, 5] is reported as 78.3%. For the same compound, the “Antioxidative activity (%)” value [1, 6] was 7.07%, the “Antioxidative activity (%)” value [1, 7] was 21.2% and the “Antioxidative activity (%)” value [1, 8] was 48.41%.

In the case of HPIKHQGLPQ, the “production of adiponectin (per unit DNA content) vs cells without peptide” value ([2]; culture supernatant, seventh day, 10, 50, 100 μM, FIG. 6) is reported as “significantly more adiponectin”, the “cell DNA content of each well vs group without peptide” value ([2]; eighth day, Student t-test) is reported as “a significant difference in cell DNA content was not observed” and the “fat accumulation (oil red O staining) vs cells without peptide” value ([2]; eighth day, Student t-test, FIG. 7) is reported as “a significant difference in fat accumulation was not observed”. For the same compound, the “GPDH activity (per unit DNA content) vs group without peptide” value ([2]; peptide 100 μM, eighth day) was “A significant difference was not observed”, the “fat accumulation (oil red O staining)” value ([2]; peptide 100 μM, eighth day) was “decreased to only a small extent” and the “GPDH activity (per unit DNA content) vs group without peptide” value ([2]; peptide 10 or 50 μM, eighth day) was “significantly higher”. For the same compound, the “antioxidative activity (in words)” value ([1]; Test Example 1, peptide purified from Gouda cheese) was “had antioxidative activity (radical scavenger activity)”, the “antioxidative activity (in words)” value ([1]; Test Example 2, synthetic peptide, FIG. 3) was “strong antioxidative activity” and the “Antioxidative activity (%)” value [1, 3] was 13.0%. The “Antioxidative activity (%)” value [1, 4] was 41.0%, the “Antioxidative activity (%)” value [1, 5] was 64.6% and the “Antioxidative activity (%)” value [1, 6] was 32.86%. For the same compound, the “Antioxidative activity (%)” value [1, 7] was 61.13% and the “Antioxidative activity (%)” value [1, 8] was 63.6%.

In the case of HQGLPQ, the “antioxidative activity (in words)” value [1, 9] is reported as “strong antioxidative activity”.

For His-Pro-Ile-Lys (HPIK; Bovine), the “antioxidative activity (in words)” value [1, 9] was “strong antioxidative activity”.

For catechin [reference compound], the “Antioxidative activity (%)” value [1, 6] was 52.65%, the “Antioxidative activity (%)” value [1, 7] was 84.45% and the “Antioxidative activity (%)” value [1, 8] was 97.17%.
